These results are taken from article PMC4531110 (Chemical biology & drug design, 2015).

Entries after “also recorded” stand apart in the source; their conditions may differ. Read-outs that look alike come from different tables or passages of the source.

Series [1] concerns A/WSN/33 influenza virus (WSN-Ren luciferase virus) in MDCK-HA cells. The settings on record: cell-based viral replication (luciferase) assay; cited from earlier work.
Series [2] has as its system influenza RNA promoter. The series is classed as binding, influenza A virus. The settings on record: for line broadening of the imino protons of U27: 1D 1H NMR; for Kd: pH 6; for binding to the RNA promoter (1D 1H NMR, imino protons of U26, G13): 30 or 50 μM RNA promoter.
In series [3] the test system is A/WSN/33 influenza virus (WSN-Ren luciferase virus) in MDCK-HA cells. To be noted: for IC50/CC50: ratio of WSN-Ren IC50 to ATPlite CC50. A general note: ATP-based viability assays read luminescence as a measure of living cells.
Series [4] has as its system MDCK cells. To be noted: cited from earlier work.
Series [5] has as its system WSN-Ren luciferase virus. As to the kind of experiment: Viral replication assay by RT-PCR, WSN nucleoprotein mRNA level in MDCK-HA cells. To be noted: 50 μM, standardized against beta-actin, vs DMSO. The series is classed as cell-based, influenza A virus.
For series [6], the target named is influenza RNA promoter. The settings on record: from peak intensity of imino protons of U26, G13 and G24; cited from earlier work.
A short description of series [7]: in vitro. The settings on record: dog.
The test system of series [8] is wild-type influenza virus (A/Puerto Rico/8/1935). The series is classed as cell-based.
The subject of series [9] is MDCK cells.
Series [10] is described as follows: ATPlite assay for cytotoxicity assessment. The settings on record: dog, MDCK cells (results text: MDCK-HA cells).

For orientation: IC50 means the midpoint of a concentration-inhibition curve. For orientation: Kd means the free concentration of one partner at which half of the binding sites on the other are occupied at equilibrium, for simple one-to-one binding. Turning to `COc1cc2nc(N3CCNCC3)nc(N)c2cc1OC` [Compound 1, 6,7-dimethoxy-2-(1-piperazinyl)-4-quinazolinamine], the IC50 in [1] is 549 µM. Further, in [2], the “line broadening of the imino protons of U27” value (“line broadening” for short) is reported as “caused line broadening of the imino protons of U27” and the Kd came to 61.5 µM. The IC50/CC50 in series [3] was under 0.55. Besides, the CC50 in [4] was over 1000 µM. Besides, the “inhibition of viral nucleoprotein mRNA production” value in [5] is “not effective”. Also, the Kd in series [6] is 50.5 ± 9 µM.

`COc1cc2nc(N3CCN(C(=O)CNC(=O)CNC(=O)CN)CC3)nc(N)c2cc1OC` [Compound 3, 2-amino-N-(2-((2-(4-(4-amino-6,7-dimethoxyquinazolin-2-yl)piperazin-1-yl)-2-oxoethyl)amino)-2-oxoethyl)acetamide]: in series [2], the “line broadening” value was “caused line broadening of the imino protons of U27”; the “binding to the RNA promoter (1D 1H NMR, imino protons of U26, G13)” value (shortened to “binding to the RNA promoter”) is given as “bound to the influenza RNA promoter; also recorded: compound binding to the RNA promoter”; the Kd turned out to be 132 µM. The same compound showed a CC50 at 24 h in [7] of over 250 µM.

In the case of `COc1cc2nc(N3CCN(C(=O)CCCCN)CC3)nc(N)c2cc1OC` [Compound 4, 5-amino-1-(4-(4-amino-6,7-dimethoxyquinazolin-2-yl)piperazin-1-yl)pentan-1-one], in series [2], the “line broadening” value is “caused line broadening of the imino protons of U27” and the “binding to the RNA promoter” value is on record as “bound to the influenza RNA promoter; also recorded: compound binding to the RNA promoter”. The same compound came in with a CC50 at 24 h in series [7] of over 250 µM.

Take `COc1cc2nc(N3CCN(S(C)(=O)=O)CC3)nc(N)c2cc1OC` [Compound 5, 6,7-dimethoxy-2-(4-(methylsulfonyl)piperazin-1-yl)quinazolin-4-amine]: in series [2], the “line broadening” value is given as “caused line broadening of the imino protons of U27” and the “binding to the RNA promoter” value is reported as “bound to the influenza RNA promoter; also recorded: compound binding to RNA promoter”. For the same compound, the CC50 at 24 h in series [7] was over 250 µM.

Regarding `CCC(=O)N1CCN(c2nc(N)c3cc(OC)c(OC)cc3n2)CC1` [Compound 6, 1-(4-(4-amino-6,7-dimethoxyquinazolin-2-yl)piperazin-1-yl)propan-1-one], in [2], the “binding to the RNA promoter” value was “compound binding to RNA promoter” and binding was characterised by a dissociation constant (Kd) of 114 µM. In addition, the IC50/CC50 in [3] is recorded as under 0.16. This compound gave a CC50 at 24 h in series [7] of over 250 µM.

On to `COc1cc2nc(N3CCN(C(=O)C(C)C)CC3)nc(N)c2cc1OC` [Compound 7, 1-(4-(4-amino-6,7-dimethoxyquinazolin-2-yl)piperazin-1-yl)-2-methylpropan-1-one], for which, in [2], the “line broadening” value is on record as “caused line broadening of the imino protons of U27”; the “binding to the RNA promoter” value was “compound binding to RNA promoter”; binding was characterised by a dissociation constant (Kd) of 158 µM. Further, in series [3], the 50% inhibitory concentration (IC50) was found to be 33.9 ± 23.2 µM and the IC50/CC50 was under 0.14. In series [7], this compound returned a CC50 at 24 h of over 250 µM.

On to `CCCC(=O)N1CCN(c2nc(N)c3cc(OC)c(OC)cc3n2)CC1` [Compound 8, 1-(4-(4-amino-6,7-dimethoxyquinazolin-2-yl)piperazin-1-yl)butan-1-one], for which, in series [2], the “binding to the RNA promoter” value is “compound binding to RNA promoter” and the dissociation constant (Kd) is 44.4 µM. In series [3], 44.2 ± 11.3 µM corresponded to half-maximal inhibition (IC50) and the IC50/CC50 was under 0.18. This compound returned a CC50 at 24 h in series [7] of over 250 µM.

Regarding `COc1cc2nc(N3CCN(C(=O)CCO)CC3)nc(N)c2cc1OC` [Compound 9, 1-(4-(4-amino-6,7-dimethoxyquinazolin-2-yl)piperazin-1-yl)-3-hydroxypropan-1-one], in series [2], the “line broadening” value was “caused line broadening of the imino protons of U27” and the “binding to the RNA promoter” value is reported as “bound to the influenza RNA promoter; also recorded: compound binding to RNA promoter”. Besides, the CC50 at 24 h in series [7] is over 250 µM.

As to `COc1cc2nc(N3CCN(C(=O)C4CC4)CC3)nc(N)c2cc1OC` [Compound 10, (4-(4-amino-6,7-dimethoxyquinazolin-2-yl)piperazin-1-yl)(cyclopropyl)methanone], the “inhibition of A/PR8 nucleoprotein mRNA level” value in series [8] is on record as “significant dose-dependent inhibitory activity; also recorded: showed inhibitory effects”. In series [2], the “binding to the RNA promoter” value is on record as “compound binding to RNA promoter” and the Kd turned out to be 127 µM. For the same compound, in [3], the concentration for half-maximal inhibition (IC50) stood at 34.2 ± 17.2 µM and the IC50/CC50 is under 0.14. Further, in series [7], the CC50 at 24 h was over 250 µM.

For `COc1cc2nc(N3CCN(C(=O)C(C)OC)CC3)nc(N)c2cc1OC` (centres unmarked) [Compound 11, 1-(4-(4-amino-6,7-dimethoxyquinazolin-2-yl)piperazin-1-yl)-2-methoxypropan-1-one], in [2], the “line broadening” value is “caused line broadening of the imino protons of U27” and the “binding to the RNA promoter” value is recorded as “bound to the influenza RNA promoter; also recorded: compound binding to RNA promoter”. In series [7], the CC50 at 24 h is over 250 µM.

`COc1cc2nc(N3CCN(C(=O)C45CC6CC(CC(C6)C4)C5)CC3)nc(N)c2cc1OC` [Compound 12, (1r,3R,5S)-adamantan-1-yl(4-(4-amino-6,7-dimethoxyquinazolin-2-yl)piperazin-1-yl)methanone]: in series [2], the “binding to the RNA promoter” value is given as “bound to the influenza RNA promoter; also recorded: compound binding to RNA promoter”. For the same compound, in [3], the 50% inhibitory concentration (IC50) is over 250 µM and the IC50/CC50 is on record as over 15.24. In series [9], this compound returned a CC50 of 16.4 µM.

Compound `COc1cc2nc(N3CCN(C(=O)C4CCCO4)CC3)nc(N)c2cc1OC` (centres unmarked) [Compound 13, (4-(4-amino-6,7-dimethoxyquinazolin-2-yl)piperazin-1-yl)(tetrahydrofuran-2-yl)methanone] came in with a CC50 at 24 h in [10] of over 250 µM.

As for `COc1cc2nc(N3CCN(C(=O)c4ccco4)CC3)nc(N)c2cc1OC` [Compound 14, (4-(4-amino-6,7-dimethoxyquinazolin-2-yl)piperazin-1-yl)(furan-2-yl)methanone], in series [2], the “line broadening” value was “caused line broadening of the imino protons of U27” and the “binding to the RNA promoter” value is recorded as “compound binding to RNA promoter”. Besides, the IC50/CC50 in series [3] turned out to be 0.36. This compound also returned a CC50 at 24 h in series [10] of 78.2 µM.

As for `COc1cc2nc(N3CCN(C(=O)c4cccs4)CC3)nc(N)c2cc1OC` [Compound 15, (4-(4-amino-6,7-dimethoxyquinazolin-2-yl)piperazin-1-yl)(thiophen-2-yl)methanone], in series [2], the “binding to the RNA promoter” value is recorded as “compound binding to RNA promoter” and the Kd stood at 221 µM. For the same compound, the IC50/CC50 in series [3] was 0.25. Moreover, the CC50 at 24 h in series [7] worked out at 67 µM.

On to `COc1cc2nc(N3CCN(C(=O)c4ccccc4)CC3)nc(N)c2cc1OC` [Compound 16, (4-(4-amino-6,7-dimethoxyquinazolin-2-yl)piperazin-1-yl)(phenyl)methanone], for which, in [2], the “binding to the RNA promoter” value is given as “compound binding to RNA promoter” and the Kd is 321 µM. Besides, the IC50/CC50 in series [3] is under 0.43. This compound showed a CC50 at 24 h in [7] of over 250 µM.

Consider `CCOC(=O)C1=C[C@@H](OC(CC)CC)[C@H](NC(C)=O)[C@@H](N)C1` [Oseltamivir phosphate, oseltamivir phosphate, reference compound], for which the “inhibition of A/PR8 nucleoprotein mRNA level” value in series [8] was “showed inhibitory effects”.
